# Measured values: patent publication US6593335B1, “Potassium channel openers” (Abbott Laboratories, priority 1997, dated 2003)
# pEC50: −log10 of the molar value.
# Key:
# [1] = test system: Male CD rats; experiment: In-vivo bladder efficacy protocol (isovolumetric contractions model); set-up: species or system rat
# Excerpt: The utility of compounds of the inyention for the treatment of urinary incontinence, bladder overactivity and bladder instability is illustrated by the ability of compounds of the inyention to affect bladder contractions in-vivo. The following method is illustrative of the in-vivo bladder efficacy of compounds of the inyention. In-vivo bladder efficacy protocol (isovolumetric contractions model) Male CD rats (400-450 g) were anesthetized with urethane (0.6 gikg ip +0.6 g/kg sc). The left femoral vein was cannulated with polyethylene (PE-50) tubing for test compound administration. […] The bladder was emptied via this catheter and additionally by applying slight manual pressure on the lower abdomen. The urinary catheter was connected using a Y-tube connector to both a pressure transducer and a syringe pump. The urethra was then ligated using 4-0 silk suture and the bladder was slowly filled using a constant infusion of room temperature saline at the rate of 0.1 ml/min until spontaneous rhythmic contractions were evident (1.0 -1.3 ml). […] Then three doses of a test compound were administered cumulatively iv at 20 minute intervals. […] Area under the curve (AUC) of the bladder contractions was determined from the respective waveforms using a Modular Instruments, Inc. computerized data acquisition system and averaged over the last ten minutes of each twenty minute period.
# [2] = target: potassium channels (Sus scrofa, UniProt F1SR11); experiment: Functional potassium channel opening activity in isolated Landrace pig bladder strips (field-stimulated twitch); settings: for Landrace Pig Bladder Index: ED50 for P1075 divided by ED50 for the test agonist, averaged over tissues; for Landrace Pig Bladder pD2: negative logarithm of ED50
# Outline: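 Landrace pig bladder strips with the mucosa removed were field-stimulated (0.05 Hz, 0.5 ms, 20 V) in Krebs Ringer bicarbonate containing propranolol, and primed with 80 mM KCl. Cumulative concentration-response curves gave maximal efficacy relative to a reference potassium channel opener, pD2, and a potency index (reference ED50/test ED50) averaged across tissues.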
# [3] = target: potassium channels (Cavia porcellus, UniProt A0A286XYR9); experiment: Membrane hyperpolarization (MHP) assay in primary cultured guinea-pig urinary bladder (GPB) cells, DiBAC(4)3 FLIPR; type: cell-based; settings: for pEC50: concentration that elicits 50% of the maximal response for the test sample; for MHP in GPB Cells Maximal Response (% P1075): maximal steady-state hyperpolarization relative to reference P1075 (assigned as 100%)
# Sequence of potassium channels (Cavia porcellus, UniProt A0A286XYR9) (A0A286XYR9 1-1546): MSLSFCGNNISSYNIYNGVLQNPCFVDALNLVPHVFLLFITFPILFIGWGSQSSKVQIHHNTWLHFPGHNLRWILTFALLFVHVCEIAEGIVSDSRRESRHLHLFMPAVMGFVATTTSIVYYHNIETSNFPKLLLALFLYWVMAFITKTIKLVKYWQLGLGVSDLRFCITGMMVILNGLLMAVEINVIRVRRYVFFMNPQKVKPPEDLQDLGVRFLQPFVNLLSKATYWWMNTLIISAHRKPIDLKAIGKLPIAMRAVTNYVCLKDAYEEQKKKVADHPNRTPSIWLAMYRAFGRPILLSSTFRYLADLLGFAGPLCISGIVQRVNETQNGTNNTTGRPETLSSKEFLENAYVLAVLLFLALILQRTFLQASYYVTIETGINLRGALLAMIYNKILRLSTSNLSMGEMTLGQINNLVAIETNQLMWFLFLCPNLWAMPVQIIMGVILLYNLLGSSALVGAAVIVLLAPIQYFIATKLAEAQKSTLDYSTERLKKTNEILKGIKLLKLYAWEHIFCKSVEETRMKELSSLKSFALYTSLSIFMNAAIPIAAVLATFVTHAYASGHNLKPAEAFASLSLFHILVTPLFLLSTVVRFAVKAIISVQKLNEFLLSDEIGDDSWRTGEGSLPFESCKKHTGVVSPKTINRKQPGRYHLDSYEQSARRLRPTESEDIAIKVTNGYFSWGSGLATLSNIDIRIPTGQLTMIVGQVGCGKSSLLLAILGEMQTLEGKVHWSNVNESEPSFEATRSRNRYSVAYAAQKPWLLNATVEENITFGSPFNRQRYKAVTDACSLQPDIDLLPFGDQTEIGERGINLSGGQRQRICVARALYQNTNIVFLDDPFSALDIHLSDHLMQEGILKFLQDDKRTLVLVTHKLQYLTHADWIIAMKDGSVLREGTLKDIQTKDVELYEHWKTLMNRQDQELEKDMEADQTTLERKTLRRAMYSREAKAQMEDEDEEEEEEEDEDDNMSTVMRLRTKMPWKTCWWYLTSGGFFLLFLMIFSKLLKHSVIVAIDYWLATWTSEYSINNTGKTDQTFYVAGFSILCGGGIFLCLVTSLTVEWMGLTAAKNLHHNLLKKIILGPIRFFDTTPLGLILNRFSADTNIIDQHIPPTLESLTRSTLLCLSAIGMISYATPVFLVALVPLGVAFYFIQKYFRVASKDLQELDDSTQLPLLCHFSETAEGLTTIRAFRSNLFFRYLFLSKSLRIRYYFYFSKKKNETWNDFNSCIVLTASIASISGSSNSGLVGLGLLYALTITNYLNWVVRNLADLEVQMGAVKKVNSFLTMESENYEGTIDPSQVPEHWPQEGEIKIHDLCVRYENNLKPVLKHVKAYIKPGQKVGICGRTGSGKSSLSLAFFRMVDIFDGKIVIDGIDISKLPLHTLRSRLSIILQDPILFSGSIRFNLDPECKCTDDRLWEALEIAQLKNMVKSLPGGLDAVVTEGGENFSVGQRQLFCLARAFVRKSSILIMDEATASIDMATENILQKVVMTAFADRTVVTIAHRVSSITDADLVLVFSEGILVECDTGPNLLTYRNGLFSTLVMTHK
# Sequence of potassium channels (Cavia porcellus, UniProt A0A286XYR9) (Q9JHJ9 whole entry partner): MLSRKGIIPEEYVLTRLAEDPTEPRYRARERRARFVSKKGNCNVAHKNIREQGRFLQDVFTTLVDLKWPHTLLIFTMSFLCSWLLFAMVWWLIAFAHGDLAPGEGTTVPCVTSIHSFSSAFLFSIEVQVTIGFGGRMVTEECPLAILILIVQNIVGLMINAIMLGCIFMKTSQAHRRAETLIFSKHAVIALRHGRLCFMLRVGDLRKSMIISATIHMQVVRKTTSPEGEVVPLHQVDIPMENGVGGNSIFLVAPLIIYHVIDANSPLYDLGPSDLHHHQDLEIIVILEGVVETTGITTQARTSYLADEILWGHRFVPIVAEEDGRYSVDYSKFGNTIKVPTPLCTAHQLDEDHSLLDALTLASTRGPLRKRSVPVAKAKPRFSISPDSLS
# Method: Determination of Potassium Channel Opening Activity Membrane Hyperpolarization Assays Compounds were evaluated for potassium channel opening activity using the rat thoracic aorta smooth muscle AI 0 cell line or primary cultured guinea-pig urinary bladder (GPB) cells. The AI0 cell line was purchased from the American Type Culture Collection (Rockville, MD; Cat # 30-2002). […] Louis, MO) and 0.2 mg/mL ronase (Calbiochem, La Jolla, CA) with continuous stirring in a cell incubator for 30 minutes. The mixture was then centrifuged at 1300 x g for 5 minutes, and the pellet resuspended in Dulbecco's PBS (GIBCO, Gaithersburg, MD) and recentrifuged to remove residual enzyme. […] Cells were confirmed to be of smooth muscle type by cytoskeletal staining using a monoclonal mouse anti human-a-smooth muscle actin (Biomeda, Foster City, CA). Functional activity at potassium channels was measured by evaluating changes in membrane potential using the bis-oxonol dye DiBAC(4)3 (Molecular Probes) in a 96-well cell-based kinetic assay system, Fluorescent Imaging Plate Reader (FLIPR) (K.S. Schroeder et al., J. Biomed. Screen., v. I pp. 75-81 (1996)). DiBAC(4)3 is an anionic potentiometric probe which partitions between cells and extracellular solution in a membrane potential-dependent manner. With increasing membrane potential (for example, K+depolarization), the probe further partitions into the cell; this is measured as an increase in fluorescence due to dye interaction with intracellular lipids and proteins. Conyersely, decreasing membrane potential (hyperpolarization by potassium channel openers) evokes a decrease in fluorescence. […] HEPES, 20; NaCl, 120; KCl, 2; CaC'2, 2; MgCl2, 1; glucose, 5; pH 7.4 at 25 ° C.) containing 5 µM DiBAC(4)3 and incubated with […] of the buffer in a cell incubator for 30 minutes at 37 OC to ensure dye distribution across the membrane. After recording the baseline fluorescence for 5 minutes, the reference or test compounds, prepared at 10 times the concentration in the assay buffer, were added directly to the wells. Changes in fluorescence were monitored for an additional 25 minutes. […] Pharmacol., v. 43 pp. 474-481 (1993)). Routinely, five concentrations of […] or test compounds (log or half-log dilutions) were evaluated and the maximal steady-state hyperpolarization values (expressed as % relative to […]) plotted as a function of concentration. […] The maximal response of each compound (expressed as % relative to […]) is reported.
# [4] = target: potassium channels (Rattus norvegicus, UniProt Q63563); experiment: Membrane hyperpolarization (MHP) assay in A10 cells, DiBAC(4)3 FLIPR; type: cell-based; settings: for pEC50: concentration that elicits 50% of the maximal response for the test sample; for MHP in A10 Cells Maximal Response (% P1075): maximal steady-state hyperpolarization relative to reference P1075 (assigned as 100%)
# Sequence of potassium channels (Rattus norvegicus, UniProt Q63563) (Q63563 whole entry): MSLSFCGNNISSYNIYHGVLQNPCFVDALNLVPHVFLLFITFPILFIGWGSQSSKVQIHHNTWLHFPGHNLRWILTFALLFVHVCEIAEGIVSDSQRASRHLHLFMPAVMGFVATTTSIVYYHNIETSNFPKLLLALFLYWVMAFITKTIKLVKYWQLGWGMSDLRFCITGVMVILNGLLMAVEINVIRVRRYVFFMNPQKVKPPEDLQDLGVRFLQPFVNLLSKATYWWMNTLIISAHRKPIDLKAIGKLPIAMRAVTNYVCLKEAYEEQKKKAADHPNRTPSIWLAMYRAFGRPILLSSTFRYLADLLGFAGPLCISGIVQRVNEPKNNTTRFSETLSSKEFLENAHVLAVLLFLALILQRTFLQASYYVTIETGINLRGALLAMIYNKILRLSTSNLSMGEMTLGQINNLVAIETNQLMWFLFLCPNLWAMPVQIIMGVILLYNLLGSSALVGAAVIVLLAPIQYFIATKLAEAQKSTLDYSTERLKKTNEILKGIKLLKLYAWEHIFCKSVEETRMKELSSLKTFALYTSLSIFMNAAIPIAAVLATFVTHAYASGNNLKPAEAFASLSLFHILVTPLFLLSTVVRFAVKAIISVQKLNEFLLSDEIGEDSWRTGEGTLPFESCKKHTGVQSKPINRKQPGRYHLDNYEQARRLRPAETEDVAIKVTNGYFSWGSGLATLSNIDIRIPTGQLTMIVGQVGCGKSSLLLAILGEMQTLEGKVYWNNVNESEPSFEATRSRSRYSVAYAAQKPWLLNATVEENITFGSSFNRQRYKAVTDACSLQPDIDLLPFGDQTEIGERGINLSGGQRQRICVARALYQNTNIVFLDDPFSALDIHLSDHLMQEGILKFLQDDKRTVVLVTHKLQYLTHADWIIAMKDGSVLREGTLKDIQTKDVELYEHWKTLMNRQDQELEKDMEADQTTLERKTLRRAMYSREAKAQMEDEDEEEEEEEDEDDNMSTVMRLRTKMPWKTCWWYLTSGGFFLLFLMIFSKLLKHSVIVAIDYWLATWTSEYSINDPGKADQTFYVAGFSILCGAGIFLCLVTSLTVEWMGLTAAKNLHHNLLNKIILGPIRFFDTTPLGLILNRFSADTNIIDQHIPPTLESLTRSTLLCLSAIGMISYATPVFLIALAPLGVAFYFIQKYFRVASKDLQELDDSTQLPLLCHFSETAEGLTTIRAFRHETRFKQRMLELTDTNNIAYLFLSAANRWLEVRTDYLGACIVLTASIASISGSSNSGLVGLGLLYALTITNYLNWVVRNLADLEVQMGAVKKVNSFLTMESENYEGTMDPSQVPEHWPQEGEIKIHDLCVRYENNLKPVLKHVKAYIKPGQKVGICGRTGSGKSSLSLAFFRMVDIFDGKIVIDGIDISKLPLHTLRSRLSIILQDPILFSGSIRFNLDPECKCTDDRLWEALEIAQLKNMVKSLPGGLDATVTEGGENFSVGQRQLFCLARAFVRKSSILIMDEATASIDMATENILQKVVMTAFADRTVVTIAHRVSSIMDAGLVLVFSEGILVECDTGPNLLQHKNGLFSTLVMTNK
# Sequence of potassium channels (Rattus norvegicus, UniProt Q63563) (Q63664 whole entry partner): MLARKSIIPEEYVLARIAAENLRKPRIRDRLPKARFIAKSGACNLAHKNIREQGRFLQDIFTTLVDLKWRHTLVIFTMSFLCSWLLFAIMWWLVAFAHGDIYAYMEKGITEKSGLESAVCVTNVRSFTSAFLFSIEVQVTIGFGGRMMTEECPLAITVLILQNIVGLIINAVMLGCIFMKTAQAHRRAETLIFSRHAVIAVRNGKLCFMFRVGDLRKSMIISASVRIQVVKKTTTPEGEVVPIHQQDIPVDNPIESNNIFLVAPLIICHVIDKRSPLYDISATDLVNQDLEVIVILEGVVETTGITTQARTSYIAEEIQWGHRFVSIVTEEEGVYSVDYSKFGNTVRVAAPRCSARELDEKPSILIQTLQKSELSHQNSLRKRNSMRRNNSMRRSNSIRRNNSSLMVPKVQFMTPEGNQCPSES
# Method: Determination of Potassium Channel Opening Activity Membrane Hyperpolarization Assays Compounds were evaluated for potassium channel opening activity using the rat thoracic aorta smooth muscle AI 0 cell line or primary cultured guinea-pig urinary bladder (GPB) cells.
# The AI0 cell line was purchased from the American Type Culture Collection (Rockville, MD; Cat # 30-2002). Cells were grown in 96-well clear-bottomed black plates (Packard) in culture media (composition: Dulbecco′s modified Eagle′s medium supplemented with 20% Fetal Bovine Serum, 100 units/mL penicillin, 100 units/mL streptomycin and 0.25 […]) at 37 ° C. with 5% C02 in a humidified chamber to form a confluent monolayer. 25 For the preparation of urinary bladder smooth muscle cells, urinary bladders were removed from male guinea-pigs (Hartley, Charles River, Wilmington, MA) weighing 300-400 g and placed in ice-cold Ca^2+-free Krebs solution (Composition, mM: KCl, 2.7; KH2PO4, 1.5; NaCl, 75; Na2HPO4, 9.6; Na2HPO4.7H2O, 8; MgSO4, 2; glucose, 5;HEPES, 10; pH 7.4). Cells were isolated by enzymatic dissociation as previously escribed with minor modifications (Klockner, U. and Isenberg, G., Pflugers Arch. 1985, 05, 329-339). The bladder was cut into small sections and incubated in 5 mL of the reb′s solution containing I mg/mL collagenase (Sigma, St. Louis, MO) and 0.2 mg/mL ronase (Calbiochem, La Jolla, CA) with continuous stirring in a cell incubator for 30 minutes. […]
# Functional activity at potassium channels was measured by evaluating changes in membrane potential using the bis-oxonol dye DiBAC(4)3 (Molecular Probes) in a 96-well cell-based kinetic assay system, Fluorescent Imaging Plate Reader (FLIPR) (K.S. Schroeder et al., J. Biomed. Screen., v. I pp. 75-81 (1996)). […] With increasing membrane potential (for example, K+depolarization), the probe further partitions into the cell; this is measured as an increase in fluorescence due to dye interaction with intracellular lipids and proteins.
# Conyersely, decreasing membrane potential (hyperpolarization by potassium channel openers) evokes a decrease in fluorescence.
# Confluent smooth muscle A10 or guinea-pig urinary bladder cells cultured in black clear-bottomed 96-well plates were rinsed twice with […] assay buffer (composition, mM: HEPES, 20; NaCl, 120; KCl, 2; CaC′2, 2; MgCl2, 1; glucose, 5; pH 7.4 at 25 ° C.) containing 5 µM DiBAC(4)3 and incubated with […] of the buffer in a cell incubator for 30 minutes at 37 OC to ensure dye distribution across the membrane. After recording the baseline fluorescence for 5 minutes, the reference or test compounds, prepared at 10 times the concentration in the assay buffer, were added directly to the wells. Changes in fluorescence were monitored for an additional 25 minutes. […]
# [5] = target: potassium channels (Homo sapiens, UniProt O60706); experiment: Functional potassium channel opening activity in isolated human bladder strips (25 mM KCl contracted)
# Method: Human bladders were obtained from women greater than 45 years old. The human tissue was obtained from the Anatomic Gift Foundation, Phoenix AZ. Human tissue was received via overnight delivery on wet ice placed into Krebs Ringer bicarbonate solution (composition, mM: NaCl, 120; NaHCO3, 20; dextrose, 11; KCl, 4.7; 20 CaC′2, 2.5; MgSO4, 1.5; KH2PO4, 1.2; K2EDTA, 0.01, equilibrated with 5% C02/95% 02 pH 7.4 at 37 ° C.). Propranolol (0.004 mM) was included in all of the assays to block […]. The trigonal and dome portions were discarded. Strips 3-5 mm wide and 20 mm long were prepared from the remaining tissue cut in a circular fashion. The mucosal layer was removed. For the human detrusor strips the tissues were contracted 25 with 25 mM KCl which produced a steady state tension of approximately 400 centigrams. […]
# After a 60 minute rinsing period, a concentration response curve (cumulative) was 30 generated for the test agonist in the same fashion as that used for the control agonist P1075. The maxximal efficacies of the compounds (expressed as % relative to P1075) are reported. […] Agonist potencies were also expressed as an index relative to PI1075. The index was calculated by dividing the ED50 for P1075 by the ED50 for the test agonist in a given tissue. […]
# [6] = maximal efficacy relative to P1075, field stimulation 0.05Hz, 0.5 milli-seconds at 20 volts
Landrace Pig Bladder Index [2],"Landrace Pig Bladder Efficacy (% P1075) [2, 6] [% P1075]",Landrace Pig Bladder pD2 [2],pEC50 [3],MHP in GPB Cells Maximal Response (% P1075) [3] [% P1075],pEC50 [4],MHP in A10 Cells Maximal Response (% P1075) [4] [% P1075],"Emax ([2]; pig, maximal efficacy relative to P1075, field stimulation 0.05Hz, 0.5 milli-seconds at 20 volts) [%]","Emax ([5]; human, maximal efficacy relative to P1075, detrusor strips contracted with 25 mM KCl) [%]","relaxation of human detrusor strips ([5]; control agonist, 25 mM KCl contracted)",SMILES,"reduction in bladder AUC ([1]; iv, dose range of 0.01, 0.1)","AUC ED30 (dose required to reduce the area under the curve of the bladder contractions by 30% relative to control) ([1]; urethane-anesthetized male CD rats, iv cumulative dosing) [µmol/kg]","effect on stimulated twitch of pig bladder strips ([2]; control agonist, concentration range of 10-9 to 10-′M, 1/2 log increments)"
0.90,100,7.5,–,–,–,–,–,–,–,"O=C1CCC2=C1C(c1ccc(F)c(Br)c1)C1=C(CCS1(=O)=O)N2 (single isomer, unassigned; (+)) [Example 87]",dose dependent reduction in bladder AUC,0.06,–
0.025,95,5.0,5.60,100,5.12,66,–,–,–,"O=C1CCCC2=C1C(c1cccc(Br)c1)C1=C(CCCS1(=O)=O)N2 (stereo not shown) [Example 8, 10-(3-bromophenyl)-3,4,6,7,8,10-hexahydro-2H-thiopyrano [3,2-b]quinolin-9(5H)-one, 1,1-dioxide]",–,–,–
0.0021,100,4.1,4.70,29,4.96,42,–,–,–,"O=C1CCCC2=C1C(c1cccc(F)c1)C1=C(CCCS1(=O)=O)N2 (stereo not shown) [Example 11, 10-(3-fluorophenyl)-3,4,6,7,8,10-hexahydro-2H-thionyrano [3,2-b]quinolin-9(5H)-one, 1,1-dioxide]",–,–,–
0.13,–,6.0,–,–,–,–,94,100,–,"O=C1CCCC2=C1C(c1ccc(Cl)c([N+](=O)[O-])c1)C1=C(CCCS1(=O)=O)N2 (stereo not shown) [Example 19, 10-(4-chloro-3-nitrolphenyl)-3,4,6,7,8,10-hexahydro-2H-thiopyrano [3,2-b]quinolin-9(5H)-one, 1,1-dioxide]",–,–,–
–,–,–,–,–,–,–,–,–,complete relaxation,"CCC(C)(C)N=C(NC#N)Nc1cccnc1 [Example P1075, reference compound]",–,–,completely eliminated the stimulated twitch
